Assay results reported in patent US12629370B2, “Treatment of prostate cancer” (Sumitomo Pharma Co., Ltd., priority 2016, dated 2026).

Experiments:
[1] = test system: serum LH; assay: Example 7: serum LH in healthy men; assay type: in vivo, human
Method: FSH, DHT, and insulin-like growth factor 1 (IGF-1; Parts 3 and 4 only) were measured in a subset of samples. Serum testosterone was assayed using a conventional immunoassay for screening (LLOQ=0.4 nmol/L). A validated LC/MS/MS method, with an LLOQ of 0.173 nmol/L and a ULOQ of 10.425 nmol/L, was used for all subsequent baseline (i.e., the subject's serum hormone levels prior to treatment commencing) and postdose measurements.

[2] = test system: PSA; assay: Example 9: PSA; assay type: in vivo, human
Method: (§1) Eligible male patients were aged ≥18 years with a histologically confirmed diagnosis of localized, intermediate-risk prostate cancer, for whom 6-month neoadjuvant and adjuvant androgen deprivation therapy (ADT) to external beam radiation therapy (EBRT) was indicated. The criteria for establishing intermediate-risk prostate cancer included the presence of one of the following, without any high-risk feature: T2b-T2c disease, Gleason score 7, or prostate-specific antigen (PSA) 10-20 ng/mL. Additional inclusion criteria included: EBRT scheduled to begin ≥12 weeks after baseline visit; screening serum testosterone >150 ng/dL (5.2 nmol/L); screening PSA concentration >2 ng/ml; body mass index ≥18.0 at screening or baseline (i.e., the subject's BMI prior to treatment commencing); Eastern Cooperative Oncology Group performance status of 0 or 1 at screening. Based on investigator discretion and clinical assessment of the patient's overall medical and disease status, participation was allowed for older patients with high-risk disease (e.g., based on Gleason score or tumor status) who were deemed likely to benefit from 6 months of neoadjuvant/adjuvant ADT. Most patients had intermediate-risk disease. However, a few patients, based on Gleason score or tumor, node, and metastasis staging system, were technically of higher than intermediate risk.
(§2) Both treatment arms received treatment for 24 weeks. Patients remained on treatment for at least 12 weeks before the start of external beam radiation treatment (EBRT), which was initiated for most patients between Week 13, Day 1 and Week 15, Day 1. EBRT began no later than day 1, week 17.
Patients were evaluated every 4 weeks during the treatment period (including day 1, week 25), at end of treatment (defined as week 29), during follow-up (week 33), and at end of study (EOS).
Samples for testosterone, luteinizing hormone (LH), FSH, and PSA concentrations were taken at screening, on day 1 of the first week (additionally days 2 and 4 for testosterone and LH), and on day 1 of weeks 2, 3, 5, 9, 13, 17, 21, 25, 29, 33, and 37 thereafter. […] Suppression of FSH was less profound than that of LH, but consistent with the literature, and was greater than that observed with GnRH agonists.

[3] = test system: patients with advanced prostate cancer; assay: Example 8: treatment-emergent adverse events (safety population)
Method: The core tablets were coated with a film coating comprising hypromellose 2910 (21.36 mg), titanium dioxide (2.4 mg), and red ferric oxide (0.06 mg).
For patients receiving leuprolide acetate (leuprorelin), on-treatment study visits occurred at baseline (day 1, week 1), day 1 of weeks 2, 3, and 5, and then every 4 weeks until week 25, and then at 12 week intervals (week 37 and 49). Patients on leuprorelin received their final injection at week 37, day 1, and the week 49, day 1 visit was considered the end of leuprorelin exposure. Patients receiving leuprorelin at visits at 16 (EOT), 20 (follow-up visit), and 24 (EOS) weeks after the last leuprorelin injection.
Efficacy and safety analyses were conducted using a safety population (received ≥1 dose of study drug). […] Safety was assessed by recording the incidence, severity, and types of treatment-emergent adverse events; by physical examination (including slit lamp examination of the anterior eye); and by evaluating changes from baseline in weight, vital signs, 12-lead electrocardiogram (ECG), and clinical laboratory parameters. […] Adverse events were coded using the Medical Dictionary for Regulatory Activities version 19.0 and graded according to National Cancer Institute Common Terminology Criteria version 4.03 (Tables 7 and 8). Safety-related haematology, chemistry, and urinalysis measurements were taken at each study visit and analysed at a central laboratory (LabCorp). Phospholipidosis was assessed as part of the safety assessments.

[4] = test system: serum LH, FSH, DHT and SHBG; assay: Example 6: serum LH, FSH, DHT and SHBG; assay type: in vivo, human; settings: for serum LH, FSH and DHT concentrations: all dose levels
[5] = test system: patients with intermediate-risk prostate cancer; assay: Example 9: quality of life (EORTC QLQ-C30, QLQ-PR25, AMS); assay type: in vivo, human
Method: as §1, §2
Quality of Life (QoL) was assessed via the core 30-item European Organisation for Research and Treatment of Cancer quality of life questionnaire (EORTC QLQ-C30), the 25-item prostate cancer module EORTC questionnaire (EORTC QLQ-PR25), and the aging male survey (AMS). QoL assessments were completed at screening, on day 1 of weeks 1, 5, 13, and 25, and at weeks 29, 33, and 37.

[6] = Example 6: plasma concentration of unchanged Compound 1 (LC-MS/MS); assay type: in vivo, human
Method: Subjects in Cohort 1 received a load dose of 320 mg and a maintenance dose of 80 mg; subjects in Cohort 2 received a load dose of 320 mg and a maintenance dose of 120 mg; subjects in Cohort 3 received a load dose of 320 mg and a maintenance dose of 160 mg; and subjects in Cohort 4 received a load dose of 360 mg and a maintenance dose of 120 mg.
In addition to the safety assessments, efficacy assessments were also performed according to the study schedule, and the Compound 1 formulation was administered until each subject met the discontinuation criteria.

[7] = from baseline (day 1) to week 25

## CONC(=O)Nc1ccc(-c2sc3c(c2CN(C)C)c(=O)n(-c2ccc(OC)nn2)c(=O)n3Cc2c(F)cccc2F)cc1 [Compound 1, N-(4-(1-(2,6-difluorobenzyl)-5-((dimethylamino)methyl)-3-(6-methoxy-3-pyridazinyl)-2,4-dioxo-1,2,3,4-tetrahydrothieno[2,3-d]pyrimidin-6-yl)phenyl)-N′-methoxyurea]
[1]; Part 2, 80 mg, baseline 4.57 IU/L
  mean serum LH at end of 16 days: 0.33 IU/L
[1]; Part 2, 180 mg, baseline 3.90 IU/L
  mean serum LH at end of 16 days: 0.23 IU/L
[2]; Baseline
  Median PSA: 7.3 µg/L
[2]; Week 24
  Median PSA: 0.07 µg/L
[2]; Week 28/EOT visit
  Median PSA: 0.07 µg/L
[2]; Week 32/follow-up
  Median PSA: 0.2 µg/L
[2]; Week 36/EOS
  Median PSA: 0.2 µg/L
[2]; by Week 13 Day 1 visit
  average PSA level: < 0.2 ng/mL
[2]; by the end of 12 weeks
  patients achieving PSA values less than 0.2 ng/ml: 6 of 30
[2]; end of 8 weeks of dosing, before radiation therapy
  PSA % responses in most patients: exceed 89%
[3]; 80 mg QD
  Acute coronary syndrome, Grade ≥3: 0 n (%)
  Death (Table 7): 1 (2) n (%)
  Death, Grade ≥3 (Table 8): 0 n (%)
  Sudden death, Grade ≥3: 0 n (%)
[3]; 120 mg QD
  Acute coronary syndrome, Grade ≥3: 1 (2) n (%)
  Death (Table 7): 0 (0) n (%)
  Death, Grade ≥3 (Table 8): 1 (2) n (%)
  Sudden death, Grade ≥3: 1 (2) n (%)
[3]; in vivo
  overall safety profile: appeared similar to that seen in the smaller observational leuprorelin cohort
[4]; Part A
  serum SHBG, baseline versus postdose: no particular changes
  serum LH, FSH and DHT concentrations: rapidly suppressed
[4]; Part B
  serum SHBG, baseline versus postdose: no particular changes
  serum LH, FSH and DHT concentrations: rapidly suppressed
[5]; [7]
  Hormonal treatment-related symptoms, Mean (SD) change: 13.4 (12.1)
  Sexual activity, Mean (SD) change: −19.7 (29.4)
[5]; from baseline to week 36 (EOS)
  Global health/QoL, Mean (SD) change: −7.7 (17.8)
  Hormonal treatment-related symptoms, Mean (SD) change: 8.5 (11.3)
  Sexual activity, Mean (SD) change: −7.3 (30.0)
[5]; from week 25 to week 36
  Global health/QoL, Mean (SD) change: 2.3 (16.6)
  Hormonal treatment-related symptoms, Mean (SD) change: −5.0 (10.3)
  Sexual activity, Mean (SD) change: 12.1 (21.8)
[5]; in vivo
  QOL (AMS and sexual activity scores) from EOT through EOS: appeared to improve more in the Compound 1 than the degarelix group
[6]; Part A Day 1, load dose 320 mg, across cohorts
  median Tmax: 1.5 h
[6]; Part A Days 14 and 28, 80 to 160 mg QD
  mean Cmax, Ctrough and mean plasma AUC24 versus dose: generally increased proportionately with dose
[6]; Part A Days 14 and 28, maintenance 80 to 160 mg QD
  median Tmax: 0.5 to 2.0 h
[6]; male, human, plasma, oral, Part A Day 1, load dose 320 mg, across cohorts, read-out: median Tmax
  Tmax: 1 h
[6]; male, human, plasma, oral, Part A Day 28, across cohorts, read-out: mean plasma T1/2
  half-life: 66.5 to 78.1 h
